Test results published in ChEMBL document CHEMBL3739421, “Discovery of oxybisbenzoylamides as a new class of antimalarial agents” (Medchemcomm, 2015).
Active and inactive are the calls of the source. The rule behind the calls is not given here.

Assays:
Plasmodium falciparum [1] = experiment: Antimalarial activity against Chloroquine-resistant Plasmodium falciparum W2 assessed as parasite growth inhibition after 72 hrs by lactate dehydrogenase assay; assay type: functional, organism-based; conditions: W2, 72 h
Plasmodium falciparum [2] = experiment: Antimalarial activity against Chloroquine-sensitive Plasmodium falciparum D10 assessed as parasite growth inhibition after 72 hrs by lactate dehydrogenase assay; assay type: functional, organism-based; conditions: D10, 72 h
[3] = Cytotoxicity against human fibroblasts assessed as growth inhibition after 72 hrs by MTT assay; assay type: cell-based; conditions: Fibroblast
[4] = Inhibition of beta-haematin formation after 18 hrs by spectrophotometric analysis relative to haematin; assay type: physicochemical
[5] = target: Plasmepsin II (Plasmodium falciparum) (UniProt P46925); experiment: Inhibition of Plasmodium falciparum recombinant PLM2 expressed in Escherichia coli BL21(DE3) pLysS cells using Lys-GluPhe-Val-Phe-NPhe-Ala-Leu-Lys as substrate at 1 uM by spectrophotometry
[6] = Therapeutic index, ratio of IC50 for human fibroblasts to IC50 for Chloroquine-resistant Plasmodium falciparum W2; conditions: read-out: Ratio IC50
[7] = Therapeutic index, ratio of IC50 for HMEC1 cells to IC50 for Chloroquine-resistant Plasmodium falciparum W2; assay type: cell-based; conditions: human; read-out: Ratio IC50
[8] = Therapeutic index, ratio of IC50 for HMEC1 cells to IC50 for Chloroquine-sensitive Plasmodium falciparum D10; assay type: cell-based; conditions: human; read-out: Ratio IC50
[9] = Cytotoxicity against human HMEC1 cells assessed as growth inhibition after 72 hrs by MTT assay; assay type: cell-based; conditions: HMEC-1, 72 h
[10] = Therapeutic index, ratio of IC50 for human fibroblasts to IC50 for Chloroquine-sensitive Plasmodium falciparum D10; conditions: read-out: Ratio IC50

Sequence of Plasmepsin II (Plasmodium falciparum) (P46925 125-453 limits assumed): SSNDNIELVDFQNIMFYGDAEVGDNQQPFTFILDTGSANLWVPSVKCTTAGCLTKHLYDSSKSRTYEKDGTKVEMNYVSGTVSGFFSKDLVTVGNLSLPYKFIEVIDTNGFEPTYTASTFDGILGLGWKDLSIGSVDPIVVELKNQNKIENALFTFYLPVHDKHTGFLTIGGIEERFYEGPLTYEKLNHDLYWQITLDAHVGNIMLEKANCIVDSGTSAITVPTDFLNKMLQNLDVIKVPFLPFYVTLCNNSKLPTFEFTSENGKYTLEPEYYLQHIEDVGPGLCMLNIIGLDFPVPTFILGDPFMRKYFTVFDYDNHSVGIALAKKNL

Row | SMILES | IC50 (Plasmodium falciparum [1]) | IC50 (Plasmodium falciparum [2]) | IC50 [3] [µM] | IC50 [4] [equiv] | inhibition [5] | other results
1 | CCCCNC(=O)[C@H](CC(C)C)NC(=O)c1ccc(Oc2ccc(C(=O)N[C@@H](CC(C)C)C(=O)NCCN(CC)CC)cc2)cc1 | 0.314 µM | 0.357 µM | 23 | – | – | –
2 | CCCCNC(=O)[C@H](CC(C)C)NC(=O)[C@@H](NC(=O)c1ccc(Oc2ccc(C(=O)N[C@H](C(=O)N[C@@H](CC(C)C)C(=O)NCCCC)[C@@H](C)CC)cc2)cc1)[C@@H](C)CC | 1.62 µM | 1.98 µM | – | – | – | –
3 | CCN(CC)CCNC(=O)[C@H](CC(C)C)NC(=O)c1ccc(Oc2ccccc2)cc1 | > 5 µg/mL | > 5 µg/mL | – | – | – | –
4 | CCN(CC)CCCC(C)Nc1ccnc2cc(Cl)ccc12 (stereo not drawn) [CHLOROQUINE] | – | – | – | 1.36 | – | –
5 | CCCCNC(=O)[C@H](CC(C)C)NC(=O)[C@@H](NC(=O)c1ccc(Oc2ccc(C(=O)N[C@@H](CC(C)C)C(=O)N[C@@H](C)C(=O)NCCCC(C)Nc3cc(OC)cc4cccnc34)cc2)cc1)[C@@H](C)CC (stereo partly drawn) | 0.104 µM | 0.037 µM | – | > 8 | inactive | –
6 | CCCCNC(=O)[C@H](CC(C)C)NC(=O)[C@@H](NC(=O)c1ccc(Oc2ccc(C(=O)N[C@@H](CC(C)C)C(=O)N[C@@H](C)C(=O)NCCN(CC)CC)cc2)cc1)[C@@H](C)CC | 0.143 µM | 0.345 µM | – | – | – | –
7 | COc1cc(NC(C)CCCN)c2ncccc2c1 (stereo not drawn) [PRIMAQUINE] | – | – | – | > 10 | – | –
8 | CCCCNC(=O)[C@H](CC(C)C)NC(=O)[C@@H](NC(=O)c1ccc(Oc2ccc(C(=O)N[C@@H](CC(C)C)C(=O)N[C@@H](C)C(=O)NCCCNc3ccnc4ccccc34)cc2)cc1)[C@@H](C)CC | 0.054 µM | 0.063 µM | – | – | inactive | –
9 | CCCCNC(=O)[C@H](CC(C)C)NC(=O)[C@@H](NC(=O)c1ccc(Oc2ccc(C(=O)N[C@@H](C)C(=O)NCCCNc3ccnc4cc(Cl)ccc34)cc2)cc1)[C@@H](C)CC | 0.039 µM | 0.043 µM | 18 | 0.79 | inactive | selectivity ratio [6]: 450; selectivity ratio [7]: 450; selectivity ratio [8]: 450; IC50 [9]: 17.6 µM; selectivity ratio [10]: 450
10 | CCCCNC(=O)[C@H](CC(C)C)NC(=O)[C@@H](NC(=O)c1ccc(Oc2ccc(C(=O)N[C@@H](CC(C)C)C(=O)NCCCN(CC)CC)cc2)cc1)[C@@H](C)CC | 0.103 µM | 0.121 µM | 16.3 | – | – | selectivity ratio [6]: > 100; selectivity ratio [10]: > 100
